This data set can be described thus: Pharmacokinetics of KRP-101 in plasma after oral or intravenous administration. It counts as in vivo. The settings on record: male Beagle dog, intravenous, 0.5 mg/kg. On the procedure: To a male Beagle dog, one tablet of the film-coated tablets obtained in Example 1 was administered orally or 0.5 mg/kg of KRP-101 were administered intravenously, and the concentration of KRP-101in plasma was measured until 24 hours after administration.

As for `CC[C@@H](Cc1ccc(OC)c(C(=O)NCc2ccc(Oc3ccc(F)cc3)cc2)c1)C(=O)O` [KRP-101, (S)-2-[3-[N-[4-(4-fluorophenoxy)benzyl]carbamoyl]-4-methoxybenzyl]butanoic acid], the “AUC (Total area under concentration-time curve)” value turned out to be 1354 ng·h/mL. Under “plasma, read-out: T½ (Elimination half-life) (converted)”, the half-life was 132 min.

By half-life is commonly meant the time needed for the level to fall by half in the phase considered.

The values are drawn from patent US20070154543A1, “Solid preparation for oral use” (KYORIN PHARMACEUTICAL CO., LTD, priority 2003, published 2007).
